Common to all, as to test: KINOMEscan (ScanMAX) kinase profiling
Holding throughout (type): binding

The target of experiment [1] is T1, panel of 468 kinases (Homo sapiens, UniProt Q9BVS4).
T1 construct: purchased KINOMEscan (ScanMAX) service
Conditions: RIOK2; 1 μM; read-out: % control.

The target of experiment [2] is T2, panel of 468 kinases (Homo sapiens, UniProt P37023).
T2 construct: purchased KINOMEscan (ScanMAX) service
The conditions noted are these: ACVRL1; 1 μM; read-out: % control.

The target of experiment [3] is T3, panel of 468 kinases (Homo sapiens, UniProt P36888, N841I).
T3 construct: purchased KINOMEscan (ScanMAX) service
T3 sequence (P36888 27-993 N841I): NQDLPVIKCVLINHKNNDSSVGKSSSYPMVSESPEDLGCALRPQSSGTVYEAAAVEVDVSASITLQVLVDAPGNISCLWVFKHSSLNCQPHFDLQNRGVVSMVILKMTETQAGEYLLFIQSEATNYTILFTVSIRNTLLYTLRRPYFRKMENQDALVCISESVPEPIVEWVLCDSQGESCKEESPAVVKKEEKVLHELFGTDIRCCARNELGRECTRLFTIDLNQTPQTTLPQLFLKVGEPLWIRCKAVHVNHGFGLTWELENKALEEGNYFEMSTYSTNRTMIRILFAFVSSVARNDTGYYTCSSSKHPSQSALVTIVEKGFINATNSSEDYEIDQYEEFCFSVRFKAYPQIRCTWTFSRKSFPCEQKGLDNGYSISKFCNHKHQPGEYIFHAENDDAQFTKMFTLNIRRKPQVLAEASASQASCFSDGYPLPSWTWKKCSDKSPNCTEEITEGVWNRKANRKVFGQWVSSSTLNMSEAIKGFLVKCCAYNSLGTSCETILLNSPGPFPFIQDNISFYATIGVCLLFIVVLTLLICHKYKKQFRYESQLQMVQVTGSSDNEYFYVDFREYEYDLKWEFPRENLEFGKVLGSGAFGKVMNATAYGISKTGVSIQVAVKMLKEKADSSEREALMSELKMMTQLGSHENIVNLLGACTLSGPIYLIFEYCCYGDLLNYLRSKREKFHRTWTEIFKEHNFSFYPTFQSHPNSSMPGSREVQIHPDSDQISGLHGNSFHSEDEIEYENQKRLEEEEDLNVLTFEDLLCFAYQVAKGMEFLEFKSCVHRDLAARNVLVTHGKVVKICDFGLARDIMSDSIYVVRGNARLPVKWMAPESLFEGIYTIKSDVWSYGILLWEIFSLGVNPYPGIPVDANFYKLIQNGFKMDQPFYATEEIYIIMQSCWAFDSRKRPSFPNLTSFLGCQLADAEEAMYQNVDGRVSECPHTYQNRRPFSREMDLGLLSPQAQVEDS
Conditions: FLT3(N841I); 1 μM; read-out: % control.

The target in experiment [4] is T4, panel of 468 kinases (Homo sapiens, UniProt Q06418).
T4 construct: purchased KINOMEscan (ScanMAX) service
T4 sequence (Q06418 41-890): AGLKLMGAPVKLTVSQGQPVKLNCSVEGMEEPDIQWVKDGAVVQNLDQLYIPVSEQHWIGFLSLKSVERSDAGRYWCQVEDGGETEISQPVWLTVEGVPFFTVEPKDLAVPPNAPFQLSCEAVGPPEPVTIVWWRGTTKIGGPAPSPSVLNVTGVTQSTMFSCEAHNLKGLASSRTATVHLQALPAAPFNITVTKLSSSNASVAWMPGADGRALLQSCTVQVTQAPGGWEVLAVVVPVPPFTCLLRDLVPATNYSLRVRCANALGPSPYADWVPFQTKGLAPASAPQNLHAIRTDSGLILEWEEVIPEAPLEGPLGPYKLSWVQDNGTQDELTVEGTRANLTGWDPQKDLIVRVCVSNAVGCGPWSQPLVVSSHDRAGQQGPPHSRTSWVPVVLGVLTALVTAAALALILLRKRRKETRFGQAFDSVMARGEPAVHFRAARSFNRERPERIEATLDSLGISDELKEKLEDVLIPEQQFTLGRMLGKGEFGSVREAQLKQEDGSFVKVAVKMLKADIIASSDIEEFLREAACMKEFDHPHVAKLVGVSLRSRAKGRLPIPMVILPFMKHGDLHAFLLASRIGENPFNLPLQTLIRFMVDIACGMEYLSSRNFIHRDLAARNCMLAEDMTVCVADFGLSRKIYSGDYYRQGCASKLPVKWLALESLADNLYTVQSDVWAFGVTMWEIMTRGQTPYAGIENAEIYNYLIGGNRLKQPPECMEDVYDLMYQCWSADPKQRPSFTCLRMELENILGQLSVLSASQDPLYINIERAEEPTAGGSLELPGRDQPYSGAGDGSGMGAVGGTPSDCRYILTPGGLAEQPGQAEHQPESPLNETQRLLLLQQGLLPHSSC
The conditions noted are these: TYRO3; 1 μM; read-out: % control.

Experiment [5] has as its target T5, panel of 468 kinases (Homo sapiens, UniProt O60331).
T5 construct: purchased KINOMEscan (ScanMAX) service
Conditions: PIP5K1C; 1 μM; read-out: % control.

Data on 3 molecules can be found in US12479847B2 (DANA-FARBER CANCER INSTITUTE, INC., priority 2019, dated 2025).

T1 sequence (Q9BVS4 whole entry): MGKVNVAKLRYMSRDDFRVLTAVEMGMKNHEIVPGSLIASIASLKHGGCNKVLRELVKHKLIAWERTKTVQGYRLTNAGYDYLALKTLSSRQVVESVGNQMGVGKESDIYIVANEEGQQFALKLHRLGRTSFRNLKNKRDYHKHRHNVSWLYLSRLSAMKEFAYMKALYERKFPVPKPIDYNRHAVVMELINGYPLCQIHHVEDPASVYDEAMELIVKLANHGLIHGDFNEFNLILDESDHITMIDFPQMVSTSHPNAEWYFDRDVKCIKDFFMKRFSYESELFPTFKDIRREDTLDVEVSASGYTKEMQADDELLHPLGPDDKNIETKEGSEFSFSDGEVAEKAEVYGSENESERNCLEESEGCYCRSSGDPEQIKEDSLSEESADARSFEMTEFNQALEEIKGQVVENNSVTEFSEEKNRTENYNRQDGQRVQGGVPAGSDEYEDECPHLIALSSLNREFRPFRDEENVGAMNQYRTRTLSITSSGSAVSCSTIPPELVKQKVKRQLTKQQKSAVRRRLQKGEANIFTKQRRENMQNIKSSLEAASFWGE
T2 sequence (P37023 22-503): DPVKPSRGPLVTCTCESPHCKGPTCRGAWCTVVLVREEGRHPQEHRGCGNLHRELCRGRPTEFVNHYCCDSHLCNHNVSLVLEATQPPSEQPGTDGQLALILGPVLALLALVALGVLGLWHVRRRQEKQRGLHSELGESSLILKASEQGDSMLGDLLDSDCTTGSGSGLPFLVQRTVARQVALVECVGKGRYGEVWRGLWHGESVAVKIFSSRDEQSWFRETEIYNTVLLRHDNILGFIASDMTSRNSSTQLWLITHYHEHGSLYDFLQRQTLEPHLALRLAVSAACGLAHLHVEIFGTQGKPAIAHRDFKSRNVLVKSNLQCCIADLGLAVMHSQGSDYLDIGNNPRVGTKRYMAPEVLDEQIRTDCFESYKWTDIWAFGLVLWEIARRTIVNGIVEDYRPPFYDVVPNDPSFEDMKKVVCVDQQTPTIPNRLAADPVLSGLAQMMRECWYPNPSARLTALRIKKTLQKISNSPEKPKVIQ
T5 sequence (O60331 whole entry): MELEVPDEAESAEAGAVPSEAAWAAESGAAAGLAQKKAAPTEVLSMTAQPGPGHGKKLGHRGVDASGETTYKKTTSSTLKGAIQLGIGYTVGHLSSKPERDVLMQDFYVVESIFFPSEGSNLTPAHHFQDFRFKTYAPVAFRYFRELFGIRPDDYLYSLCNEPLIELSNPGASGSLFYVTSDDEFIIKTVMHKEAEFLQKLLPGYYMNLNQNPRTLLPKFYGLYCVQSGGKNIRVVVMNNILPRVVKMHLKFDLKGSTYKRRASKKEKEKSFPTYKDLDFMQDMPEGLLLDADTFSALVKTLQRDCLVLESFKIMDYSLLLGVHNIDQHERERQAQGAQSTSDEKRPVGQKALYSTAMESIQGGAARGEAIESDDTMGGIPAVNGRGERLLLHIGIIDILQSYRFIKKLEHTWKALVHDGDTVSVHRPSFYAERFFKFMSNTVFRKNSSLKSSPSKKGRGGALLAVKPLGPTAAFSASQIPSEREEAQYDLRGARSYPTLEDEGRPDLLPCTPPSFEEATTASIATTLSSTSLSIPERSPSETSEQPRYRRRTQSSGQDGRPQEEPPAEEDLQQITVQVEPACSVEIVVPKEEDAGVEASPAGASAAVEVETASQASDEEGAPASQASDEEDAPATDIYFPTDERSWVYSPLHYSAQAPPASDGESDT

Take `CNc1nc(Nc2ccc(S(=O)(=O)N3CCC(N4CCOCC4)CC3)cc2OC)nc2[nH]cc(Cl)c12` [Compound 12, 5-chloro-N2-(2-methoxy-4-((4-morpholinopiperidin-1-yl)sulfonyl)phenyl)-N4-methyl-7H-pyrrolo[2,3-d]pyrimidine-2,4-diamine]: the remaining binding at 1 µM was found to be 94% at panel of 468 kinases [1]; 100% on panel of 468 kinases [2]; 85% at panel of 468 kinases [3]; 100% on panel of 468 kinases [4]; 57% at panel of 468 kinases [5].

As to `CNc1nc(Nc2ccc(C(=O)N3CCC(N4CCOCC4)CC3)c3c2OCO3)nc2[nH]cc(Cl)c12` [Compound 75, (7-((5-chloro-4-(methylamino)-7H-pyrrolo[2,3-d]pyrimidin-2-yl)amino)benzo[d][1,3]dioxol-4-yl)(4-morpholinopiperidin-1-yl)methanone], the remaining binding at 1 µM came out at 53% on panel of 468 kinases [1]; 100% at panel of 468 kinases [2]; 65% on panel of 468 kinases [3]; 100% at panel of 468 kinases [4]; 55% on panel of 468 kinases [5].

On to `CNc1nc(Nc2ccc(P3(=O)CCN(C4CCOCC4)CC3)cc2OC)nc2[nH]cc(Cl)c12` [Compound 77, 4-(4-((5-chloro-4-(methylamino)-7H-pyrrolo[2,3-d]pyrimidin-2-yl)amino)-3-methoxyphenyl)-1-(tetrahydro-2H-pyran-4-yl)-1,4-azaphosphinane 4-oxide], for which the remaining binding at 1 µM on panel of 468 kinases [1] was 78%; at panel of 468 kinases [2], 100%; at panel of 468 kinases [3], 99%; on panel of 468 kinases [4], 100%; on panel of 468 kinases [5], 70%.
